{"source": "patent US20250206730A1", "about": "(AUTOTELIC BIO INC., priority 2022, published 2025)", "data": [{"test_system": "TGF-β signaling", "test": "Assay for evaluating cellular inhibition of TGF-β signaling, 4T1 (SBE-luc2P) luciferase reporter", "assay_type": "cell-based", "conditions": "Mus musculus, 4T1, 4T1 (SBE-luc2P) transient pool, 0.2% FBS, 2 h pre-treatment, TGF-β1 2 ng/mL 24 h; read-out: IC50 4T1 Cell", "procedure": "[Example 2] Assay for Evaluating Cellular Inhibition of TGF-β Signaling\n4T1 (SBE-luc2P) transient pool that have SBE-luc2P (hygro) expression plasmid or HEK293 (SBE reporter) stable cells (BPS bioscience) were seeded at 6×10^3 cells/well or 2.5×10^4 cells/well in 96-well plate, respectively. 4T1 (SBE-luc2P) transient pool were pre-treated with novel compound synthesized in Example 1 above in 0.2% FBS at approximately 60% confluence at 37° C. in 5% CO2. Also, HEK293 (SBE reporter) stable cells were pre-treated with each test compounds of formula in 0.5% FBS at approximately 80% confluence at 37° C. in 5% CO2. After 2 hours, cells were treated with TGF-β1 (2 ng/mL) for 24 h at 37° C. in 5% CO2. Cell lysates were prepared using Luciferase Assay (Promega) according to the manufacturer's instruction, and luminescence was measured by a plate reader, Biotek Synergy H1 (Vermont, USA).", "units": {"IC50": "nM"}, "values": [{"smiles": "Nc1nc(-c2ccccc2)c(Oc2ccnc(Nc3cccnc3)c2)s1", "note": "[A-6, 4-Phenyl-5-((2-(pyridin-3-ylamino)pyridin-4-yl)oxy)thiazol-2-amine]", "IC50": "> 100"}, {"smiles": "Nc1nc(-c2ccccc2)c(Oc2ccnc(Nc3ccc(F)nc3)c2)s1", "note": "[A-7, 5-((2-((6-Fluoropyridin-3-yl)amino)pyridin-4-yl)oxy)-4-phenylthiazol-2-amine]", "IC50": "> 100"}, {"smiles": "Nc1nc(-c2ccccc2)c(Oc2ccnc(Nc3ccncc3)c2)s1", "note": "[A-8, 4-Phenyl-5-((2-(pyridin-4-ylamino)pyridin-4-yl)oxy)thiazol-2-amine]", "IC50": "> 100"}, {"smiles": "NC(=O)c1ccc(Nc2cc(Oc3sc(N)nc3-c3ccccc3)ccn2)cn1", "note": "[A-11, 5-((4-((2-Amino-4-phenylthiazol-5-yl)oxy)pyridin-2-yl)amino)picolinamide]", "IC50": "> 100"}, {"smiles": "CNS(=O)(=O)c1cccc(Nc2cc(Oc3sc(N)nc3-c3ccccc3)ccn2)c1", "note": "[A-12, 3-((4-((2-Amino-4-phenylthiazol-5-yl)oxy)pyridin-2-yl)amino)-N-methylbenzenesulfonamide]", "IC50": "< 100"}, {"smiles": "CN(C)S(=O)(=O)c1cccc(Nc2cc(Oc3sc(N)nc3-c3ccccc3)ccn2)c1", "note": "[A-13, 3-((4-((2-Amino-4-phenylthiazol-5-yl)oxy)pyridin-2-yl)amino)-N,N-dimethylbenzenesulfonamide]", "IC50": "< 100"}, {"smiles": "CS(=O)(=O)c1cccc(Nc2cc(Oc3sc(N)nc3-c3ccccc3)ccn2)c1", "note": "[A-15, 5-((2-((3-(Methylsulfonyl)phenyl)amino)pyridin-4-yl)oxy)-4-phenylthiazol-2-amine]", "IC50": "< 100"}, {"smiles": "Nc1nc(-c2ccccc2)c(Oc2ccnc(Nc3cccc(NS(=O)(=O)C4CC4)c3)c2)s1", "note": "[A-16, N-(3-((4-((2-Amino-4-phenylthiazol-5-yl)oxy)pyridin-2-yl)amino)phenyl)cyclopropanesulfonamide]", "IC50": "< 100"}, {"smiles": "Nc1nc(-c2ccccc2)c(Oc2ccnc(Nc3cccc(S(=O)(=O)C(F)(F)F)c3)c2)s1", "note": "[A-17, 4-Phenyl-5-((2-((3-((trifluoromethyl)sulfonyl)phenyl)amino)pyridin-4-yl)oxy)thiazol-2-amine]", "IC50": "> 100"}, {"smiles": "Nc1nc(-c2ccccc2)c(Oc2ccnc(Nc3cccc(S(=O)(=O)O)c3)c2)s1", "note": "[A-18, 3-((4-((2-Amino-4-phenylthiazol-5-yl)oxy)pyridin-2-yl)amino)benzenesulfonic acid]", "IC50": "> 100"}, {"smiles": "CS(=O)(=O)Cc1cccc(Nc2cc(Oc3sc(N)nc3-c3ccccc3)ccn2)c1", "note": "[A-19, 5-((2-((3-((Methylsulfonyl)methyl)phenyl)amino)pyridin-4-yl)oxy)-4-phenylthiazol-2-amine]", "IC50": "< 100"}, {"smiles": "Nc1nc(-c2ccccc2)c(Oc2ccnc(Nc3cccc(S(=O)(=O)NC4CC4)c3)c2)s1", "note": "[A-20, 3-((4-((2-Amino-4-phenylthiazol-5-yl)oxy)pyridin-2-yl)amino)-N-cyclopropylbenzenesulfonamide]", "IC50": "< 100"}, {"smiles": "Nc1nc(-c2ccccc2)c(Oc2ccnc(NCc3cccc(F)c3)c2)s1", "note": "[A-21, 5-((2-((3-Fluorobenzyl)amino)pyridin-4-yl)oxy)-4-phenylthiazol-2-amine]", "IC50": "> 100"}, {"smiles": "NC(=O)c1ccnc(Nc2cc(Oc3sc(N)nc3-c3ccccc3)ccn2)c1", "note": "[A-22, 2-((4-((2-Amino-4-phenylthiazol-5-yl)oxy)pyridin-2-yl)amino)isonicotinamide]", "IC50": "< 100"}, {"smiles": "CNC(=O)c1cccc(Nc2cc(Oc3sc(N)nc3-c3ccccc3)ccn2)c1", "note": "[A-23, 3-((4-((2-Amino-4-phenylthiazol-5-yl)oxy)pyridin-2-yl)amino)-N-methylbenzamide]", "IC50": "< 100"}, {"smiles": "COc1cc(Nc2cc(Oc3sc(N)nc3-c3ccccc3)ccn2)ccn1", "note": "[A-24, 5-((2-((2-Methoxypyridin-4-yl)amino)pyridin-4-yl)oxy)-4-phenylthiazol-2-amine]", "IC50": "< 100"}, {"smiles": "Nc1nc(-c2ccccc2)c(Oc2ccnc(NCc3ccccc3)c2)s1", "note": "[A-25, 5-((2-(Benzylamino)pyridin-4-yl)oxy)-4-phenylthiazol-2-amine]", "IC50": "> 100"}, {"smiles": "Nc1nc(-c2ccccc2)c(Oc2ccnc(NCc3ccncc3)c2)s1", "note": "[A-26, 4-Phenyl-5-((2-((pyridin-4-ylmethyl)amino)pyridin-4-yl)oxy)thiazol-2-amine]", "IC50": "> 100"}, {"smiles": "Nc1nc(-c2ccccc2)c(Oc2ccnc(Nc3ccnc(Cl)c3)c2)s1", "note": "[A-27, 5-((2-((2-Chloropyridin-4-yl)amino)pyridin-4-yl)oxy)-4-phenylthiazol-2-amine]", "IC50": "> 100"}, {"smiles": "Nc1nc(-c2ccccc2)c(Oc2ccnc(NCc3cccnc3)c2)s1", "note": "[A-28, 4-Phenyl-5-((2-((pyridin-3-ylmethyl)amino)pyridin-4-yl)oxy)thiazol-2-amine]", "IC50": "> 100"}, {"smiles": "Nc1nc(-c2ccccc2)c(Oc2ccnc(Nc3ccnc(F)c3)c2)s1", "note": "[A-30, 5-((2-((2-Fluoropyridin-4-yl)amino)pyridin-4-yl)oxy)-4-phenylthiazol-2-amine]", "IC50": "> 100"}, {"smiles": "COc1ccc(Nc2cc(Oc3sc(N)nc3-c3ccccc3)ccn2)cn1", "note": "[A-31, 5-((2-((6-Methoxypyridin-3-yl)amino)pyridin-4-yl)oxy)-4-phenylthiazol-2-amine]", "IC50": "> 100"}, {"smiles": "NC(=O)c1cncc(Nc2cc(Oc3sc(N)nc3-c3ccccc3)ccn2)c1", "note": "[A-32, 5-((4-((2-Amino-4-phenylthiazol-5-yl)oxy)pyridin-2-yl)amino)nicotinamide]", "IC50": "> 100"}, {"smiles": "NC(=O)c1cccc(Nc2cc(Oc3sc(N)nc3-c3ccccc3)ccn2)n1", "note": "[A-33, 6-((4-((2-Amino-4-phenylthiazol-5-yl)oxy)pyridin-2-yl)amino)picolinamide]", "IC50": "< 100"}, {"smiles": "CCS(=O)(=O)c1cccc(Nc2cc(Oc3sc(N)nc3-c3ccccc3)ccn2)c1", "note": "[A-34, 5-((2-((3-(Ethylsulfonyl)phenyl)amino)pyridin-4-yl)oxy)-4-phenylthiazol-2-amine]", "IC50": "< 100"}, {"smiles": "Nc1nc(-c2ccccc2)c(Oc2ccnc(Nc3ccc(Cl)nc3)c2)s1", "note": "[A-35, 5-((2-((6-Chloropyridin-3-yl)amino)pyridin-4-yl)oxy)-4-phenylthiazol-2-amine]", "IC50": "> 100"}, {"smiles": "Nc1nc(-c2ccccc2)c(Oc2ccnc(Nc3cccc(NS(=O)(=O)C(F)(F)F)c3)c2)s1", "note": "[A-36, N-(3-((4-((2-Amino-4-phenylthiazol-5-yl)oxy)pyridin-2-yl)amino)phenyl)-1,1,1-trifluoromethanesulfonamide]", "IC50": "< 100"}, {"smiles": "Cn1cc(Nc2cc(Oc3sc(N)nc3-c3ccccc3)ccn2)cn1", "note": "[A-37, 5-((2-((1-Methyl-1H-pyrazol-4-yl)amino)pyridin-4-yl)oxy)-4-phenylthiazol-2-amine]", "IC50": "> 100"}, {"smiles": "Nc1nc(-c2ccccc2)c(Oc2ccnc(Nc3cn[nH]c3)c2)s1", "note": "[A-38, 5-((2-((1H-Pyrazol-4-yl)amino)pyridin-4-yl)oxy)-4-phenylthiazol-2-amine]", "IC50": "> 100"}, {"smiles": "CS(=O)(=O)n1cc(Nc2cc(Oc3sc(N)nc3-c3ccccc3)ccn2)cn1", "note": "[A-62, 5-((2-((1-(Methylsulfonyl)-1H-pyrazol-4-yl)amino)pyridin-4-yl)oxy)-4-phenylthiazol-2-amine]", "IC50": "> 100"}, {"smiles": "Cc1nc(-c2ccccc2)c(Oc2ccnc(Nc3cccc(C(=O)N(C)C)c3)c2)s1", "note": "[A-67, N,N-Dimethyl-3-((4-((2-methyl-4-phenylthiazol-5-yl)oxy)pyridin-2-yl)amino)benzamide]", "IC50": "< 100"}, {"smiles": "CNS(=O)(=O)c1cccc(Nc2cc(Oc3sc(C)nc3-c3ccccc3)ccn2)c1", "note": "[A-73, N-Methyl-3-((4-((2-methyl-4-phenylthiazol-5-yl)oxy)pyridin-2-yl)amino)benzenesulfonamide]", "IC50": "< 100"}, {"smiles": "Cc1nc(-c2ccccc2)c(Oc2ccnc(Nc3cccc(S(=O)(=O)N(C)C)c3)c2)s1", "note": "[A-74, N,N-Dimethyl-3-((4-((2-methyl-4-phenylthiazol-5-yl)oxy)pyridin-2-yl)amino)benzenesulfonamide]", "IC50": "< 100"}, {"smiles": "Cc1nc(-c2ccccc2)c(Oc2ccnc(Nc3cccc(NS(=O)(=O)C4CC4)c3)c2)s1", "note": "[A-75, N-(3-((4-((2-Methyl-4-phenylthiazol-5-yl)oxy)pyridin-2-yl)amino)phenyl)cyclopropanesulfonamide]", "IC50": "< 100"}, {"smiles": "Cc1nc(-c2ccccc2)c(Oc2ccnc(Nc3cccc(S(=O)(=O)NC4CC4)c3)c2)s1", "note": "[A-76, N-Cyclopropyl-3-((4-((2-methyl-4-phenylthiazol-5-yl)oxy)pyridin-2-yl)amino)benzenesulfonamide]", "IC50": "< 100"}, {"smiles": "CCS(=O)(=O)c1cccc(Nc2cc(Oc3sc(C)nc3-c3ccccc3)ccn2)c1", "note": "[A-77, N-(3-(Ethylsulfonyl)phenyl)-4-((2-methyl-4-phenylthiazol-5-yl)oxy)pyridin-2-amine]", "IC50": "< 100"}, {"smiles": "Cc1nc(-c2ccccc2)c(Oc2ccnc(Nc3cccc(CS(C)(=O)=O)c3)c2)s1", "note": "[A-79, 4-((2-Methyl-4-phenylthiazol-5-yl)oxy)-N-(3-((methylsulfonyl)methyl)phenyl)pyridin-2-amine]", "IC50": "< 100"}, {"smiles": "Cc1nc(-c2ccccc2)c(Oc2ccnc(NCc3ccncc3)c2)s1", "note": "[A-80, 4-((2-Methyl-4-phenylthiazol-5-yl)oxy)-N-(pyridin-4-ylmethyl)pyridin-2-amine]", "IC50": "> 100"}, {"smiles": "Cc1nc(-c2ccccc2)c(Oc2ccnc(NCc3cccnc3)c2)s1", "note": "[A-81, 4-((2-Methyl-4-phenylthiazol-5-yl)oxy)-N-(pyridin-3-ylmethyl)pyridin-2-amine]", "IC50": "> 100"}, {"smiles": "Cc1nc(-c2ccccc2)c(Oc2ccnc(Nc3cccnc3)c2)s1", "note": "[A-82, 4-((2-Methyl-4-phenylthiazol-5-yl)oxy)-N-(pyridin-3-yl)pyridin-2-amine]", "IC50": "> 100"}, {"smiles": "Cc1nc(-c2ccccc2)c(Oc2ccnc(Nc3ccc(F)nc3)c2)s1", "note": "[A-83, N-(6-Fluoropyridin-3-yl)-4-((2-methyl-4-phenylthiazol-5-yl)oxy)pyridin-2-amine]", "IC50": "> 100"}]}]}
